# Data published in US20050250944A1, “Synthesis and uses of synephrine derivatives” (priority 2004, published 2005).
# Entries after “also recorded” stand apart in the source; their conditions may differ. Structures can show the parent of a compound that is named as a salt.
# What was measured:
# [1] = tested on: adipose tissue; settings: Pilkington, Cernohorsky, Muhlbachova, Wenkeova et al.; cited from earlier work
# [2] = tested on: human adipocytes; assay: Test of lipolytic capacity on human adipocytes (glycerol release); assay type: cell-based; settings: for maximal lipolytic response elicited: glycerol released by human abdominal subcutaneous adipocytes, 90 min at 37° C., basal 0%, isoproterenol 100%
# Description: The lipolytic capacity of the Synephrine Derivatives can be tested in human adipocytes. For the sake of convenience, for Examples 21 to 24, the known 2-isopropylamino-1-(4-hydroxyphenyl)-ethanol hydrochloride (Formula shown in Example 12, above, also known as isopropylnorsynephrine hydrochloride) is used here as a non-limiting example of a Synephrine Derivative.
# In this example, the lipolytic property of isopropylnorsynephrine hydrochloride was compared to that of synephrine hydrochloride (Formula shown in Example 15). The index of lipolytic activity chosen was the glycerol released by freshly originated human adipocytes with reference to basal (0%, without any drug) and maximal (100%) responses to a standard lipolytic reference: isoproterenol.
# Adipocytes were isolated from samples of subcutaneous abdominal adipose depot freshly obtained during abdominal lipectomy. The surgical interventions were conducted under general anaesthesia on ten healthy women undergoing abdominal plastic surgery. The human samples were transferred in less than 15 min to the laboratory for adipocyte preparation. The human abdominal subcutaneous adipocytes were obtained by collagenase digestion of the fresh samples of adipose tissue. The isolation, washing, handling and distribution of fat cells were carried out according to the technique described in Carpene, “Assays of Adrenergic Receptors: Including Lipolysis and Binding Measurements”, from Methods in Molecular Biology, supra. Briefly, extemporaneous dilutions of the tested drugs were added in 4 μl in plastic vials which received 400 μl of freshly prepared adipocyte suspension. The given concentrations were the final concentrations in which the cells were incubated for 90 min at 37° C. under gentle shaking. At the end of the experiment, the glycerol released by the cells was determined on an aliquot as described in Carpene, Id.
# The mean lipid content in the incubation vials was 17.6±1.0 mg/400 μl, which corresponded to approximately 500,000 cells/vial.
# [3] = literature; cited from earlier work
# [4] = tested on: β-adrenergic; settings: literature; cited from earlier work
# [5] = tested on: human fat cells; settings: Carpene et al.; cited from earlier work
# [6] = target: T1, β3-adrenoceptors (Rattus norvegicus, UniProt P26255); settings: Carpene et al. 1999; cited from earlier work
# T1 construct: comparative studies in mammalian fat cells; host or cells: mammalian fat cells (adipocytes), endogenous receptor
# [7] = tested on: rat adipocyte; settings: Carpene et al.; cited from earlier work
# [8] = long use in China; Zhao et al. 1989; cited from earlier work
# [9] = ratio to synephrine hydrochloride
# T1 sequence (P26255 whole entry): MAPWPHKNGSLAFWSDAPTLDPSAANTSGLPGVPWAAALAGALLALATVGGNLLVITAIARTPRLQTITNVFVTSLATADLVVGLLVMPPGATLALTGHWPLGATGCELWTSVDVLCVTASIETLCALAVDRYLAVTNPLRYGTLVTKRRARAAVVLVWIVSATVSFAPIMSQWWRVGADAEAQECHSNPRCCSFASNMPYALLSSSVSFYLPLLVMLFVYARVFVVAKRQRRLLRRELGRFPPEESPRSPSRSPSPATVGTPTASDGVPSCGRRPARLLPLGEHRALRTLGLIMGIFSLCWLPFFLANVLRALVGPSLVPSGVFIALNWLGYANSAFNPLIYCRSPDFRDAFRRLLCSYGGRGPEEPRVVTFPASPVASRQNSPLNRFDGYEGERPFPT
smiles,measurement,setting,value
"CCCCNCC(O)c1ccc(O)cc1 (stereo not drawn) [Bamethan, 2-butylamino-1-(4-hydroxyphenyl)-ethanol]",lipid mobilization properties in vitro,[1],have lipid mobilization properties in vitro
"CCNCC(O)c1ccc(O)cc1 (stereo not drawn) [ethylnorsynephrine, 2-ethylamino-1-(4-hydroxyphenyl)-ethanol]",lipid mobilization properties in vitro,[1],have lipid mobilization properties in vitro
"CC(C)NCC(O)c1ccc(O)cc1 (stereo not drawn) [isopropylnorsynephrine hydrochloride, 2-Isopropylamino-1-(4-hydroxyphenyl)-ethanol hydrochloride]",lipolytic effect at low concentration versus synephrine hydrochloride,[2]; 1μg/mL versus synephrine hydrochloride at 100 μg/mL,still far greater than that of synephrine hydrochloride
same,maximal lipolytic response elicited,[2]; FIG. 1,~60%
same,lipolytic property on human fat cells (in words),"[2]; human adipocytes, FIG. 1, hydrochloride",strong lipolytic property; also recorded: superior than synephrine hydrochloride
same,capacity to stimulate human adipocytes lipolysis compared to synephrine hydrochloride,[2]; [9],2 times
same,lipolytic potency relative to synephrine hydrochloride,[2]; [9],~100 times
"CC(C)NCC(O)c1ccc(O)cc1 (stereo not drawn) [isopropylnorsynephrine, 2-isopropylamino-1-(4-hydroxyphenyl)-ethanol]",plasma free fatty acid level in vivo,[3],can increase plasma free fatty acid level in vivo
same,adrenergic activity (in words),[4],pure β-adrenergic activity
same,lipid mobilization properties in vitro,[1],have lipid mobilization properties in vitro
"NCC(O)c1ccc(O)cc1 (stereo not drawn) [octopamine, 2-amino-1-(4-hydroxyphenyl)-ethanol]",effect on human fat cells (lipolysis),[5],ineffective
same,selective action on β3-adrenoceptors,[6],can selectively act on β3-adrenoceptors; also recorded: selective activation of β3-adrenoceptor
same,rat adipocyte lipolysis,[7],effective
"CC(C)(Cc1ccccc1)NCC(O)c1ccc(O)cc1 (stereo not drawn) [phenyl-t-butylnorsynephrine, 2-(phenyl-t-butylamino)-1-(4-hydroxyphenyl)-ethanol]",lipid mobilization properties in vitro,[1],have lipid mobilization properties in vitro
"CCCNCC(O)c1ccc(O)cc1 (stereo not drawn) [propylnorsynephrine, 2-propylamino-1-(4-hydroxyphenyl)-ethanol]",lipid mobilization properties in vitro,[1],have lipid mobilization properties in vitro
"CNCC(O)c1ccc(O)cc1 (stereo not drawn) [synephrine hydrochloride, 2-Methylamino-1-(4-hydroxyphenyl)-ethanol hydrochloride, reference compound]",maximal lipolytic response elicited,[2]; FIG. 1,~30%
"CNCC(O)c1ccc(O)cc1 (stereo not drawn) [synephrine, 2-methylamino-1-(4-hydroxyphenyl)-ethanol]",plasma free fatty acid level in vivo,[3],can increase plasma free fatty acid level in vivo
same,adrenergic activity (in words),[4],both α- and β-adrenergic activity
same,lipid mobilization properties in vitro,[1],have lipid mobilization properties in vitro
same,effect on blood pressure,[8],increase blood pressure
"CC(C)(C)NCC(O)c1ccc(O)cc1 (stereo not drawn) [tert-butylnorsynephrine, 2-tert-butylamino-1-(4-hydroxyphenyl)-ethanol]",lipid mobilization properties in vitro,[1],have lipid mobilization properties in vitro
